Data on one molecule can be found in US11673139B2, “Microfluidic platforms for drug discovery” (UVic Industry Partnerships Inc., priority 2020, dated 2023).

This data set is described as follows: Passive diffusion of fluorophore through tripartite DIB network (intestinal space, enterocyte, blood compartments). Also on record: half-life: dose or concentration left out as unconfirmed. In kind it is in vitro ADME. An excerpt: The first droplet 12 can mimic the intestinal space, the second droplet 14 can mimic an enterocyte, and the third droplet 16 can mimic the blood. The interior of each droplet 12, 14, 16 comprises a buffer (see Table 1) that mimics the pH and salt composition of the respective compartment. The barrier layer or artificial membrane between each pair of adjacent droplets can be an equal mixture of the phospholipids L-α-phosphatidylcholine (PC) and L-α-phosphatidylethanolamine (PE). The size of the droplets 116 can mimic the volume of human cells.
To prepare the lipid solutions, chloroform was removed from the lipid stock solutions by placing 10 mg (e.g., 400 μL of a 25 mgmL^−1 solution) of lipids in a 10 mL glass roundbottom flask, and rotating the flask under a stream of nitrogen gas to create a thin film. The flask was then placed in a desiccator under vacuum for 1 hour to remove residual solvent. […]
During use, the microfluidic devices were mounted in a heating platform set to 37° C. on a microscope stage (e.g., a Nikon Eclipse Ti2-E or a Nikon Eclipse Ti2-U inverted microscope) for visualization. […] Fluorescence and brightfield images for fluorescence experiments were captured using a measurement camera (e.g., a Hamamatsu ORCA Flash4.0 V3, with a Solis 1C cold white LED (e.g., from Thorlabs) and a GFP SemrockBrightline large field of view filter cube (e.g., from Nikon).
Reagents were introduced into the microfluidic devices using a pressure pump (e.g., an Elveflow OB1 MK3 pressure pump), four 1.5 mL Eppendorf tubes as reservoirs and four matched lengths of PTFE tubing. […] Following equilibration, the main chamber was monitored in Motion Blitz Director for quantification of device performance, and NIS Elements Advanced Research (Nikon, version 5.11.01) for fluorescence data collection. Following formation of a tripartite DIB network for a fluorescence experiment, flow was stopped from all reservoirs from within the Elveflow control software. […]

Each structure is given as a SMILES string.

Turning to `O=C1OC2(c3ccc(O)cc3Oc3cc(O)ccc32)c2ccccc21` [fluorescein], under “100 µM”, the “compartment preference in control triplets” value is reported as “clear preference for pH 7.4 compartments”. Besides, the Papp entry (DIB network treated as two compartment model, intestinal space to enterocyte droplet, Equation (3), data of FIG. 6) is “(5.5±0.8)×10^−5 cms^−1”. Moreover, the half-life (DIB network, intestinal space droplet (pH 6.5) into enterocyte droplet (pH 7.4), 37° C., exponential curve fit, FIG. 5, read-out: half-life (t1/2) of the fluorophore in the intestinal space (converted)) was 1.8 min.
